Reference: patent US10532985B2, “Heterocycle and carbocycle derivatives having TRKA inhibitory activity” (Shionogi & Co., Ltd., priority 2014, dated 2020)
pIC50: −log10 of the molar value. Where two headings read alike, the source gives them in different places.

Target: T1, human TrkA (Homo sapiens, UniProt P04629)
T1 construct: purchased Lifetechnologies PV3144
Experiment: Test Example 2: Human TrkA Inhibition Assay
Assay type: biochemical
Details: Test Example 2
Experimental: After the incubation for 90 min at room temperature, ten μL of termination buffer (100 mmol/L HEPES, 40 mmol/L ethylenediaminetetraacetic acid (EDTA), 10 mmol/L magnesium chloride, 0.003 vol % Brij-35, 0.004 vol % Tween20, 1 mmol/L DTT and 0.16 vol % Coating Reagent 3) was added in each well to stop the enzyme reaction. Fluorescent intensities (FI) of phosphorylated and non-phosphorylated fluorescent substrates were measured by LabChip EZReader II (Caliper LifeSciences, Inc.) and conversion ratio (CR) was calculated by the following formula-1. The CR in the well applied with DMSO alone was used as a negative control and the CR in the well without applying TrkA was used as a positive control. The inhibitory effect of each compound on TrkA phosphorylation was calculated by the following formula-2. CR (%)=(FI of phosphorylated substrate/(FI of phosphorylated substrate+FI of non-phosphorylated substrate))×100 (Formula-1) Inhibitory effect on TrkA phosphorylation (%)=(1−(CR in compound treated well−CR in positive control)/(CR in negative control−CR in positive control))×100. (Formula-2)

[1] = human TrkA inhibition, class symbols A/B/C, read-out: IC50_nM
[2] = human TrkA 2.5 nmol/L, ATP 500 μmol/L, 90 min at room temperature, read-out: TrkA inhibitory activity IC50

T1 sequence (P04629 33-796): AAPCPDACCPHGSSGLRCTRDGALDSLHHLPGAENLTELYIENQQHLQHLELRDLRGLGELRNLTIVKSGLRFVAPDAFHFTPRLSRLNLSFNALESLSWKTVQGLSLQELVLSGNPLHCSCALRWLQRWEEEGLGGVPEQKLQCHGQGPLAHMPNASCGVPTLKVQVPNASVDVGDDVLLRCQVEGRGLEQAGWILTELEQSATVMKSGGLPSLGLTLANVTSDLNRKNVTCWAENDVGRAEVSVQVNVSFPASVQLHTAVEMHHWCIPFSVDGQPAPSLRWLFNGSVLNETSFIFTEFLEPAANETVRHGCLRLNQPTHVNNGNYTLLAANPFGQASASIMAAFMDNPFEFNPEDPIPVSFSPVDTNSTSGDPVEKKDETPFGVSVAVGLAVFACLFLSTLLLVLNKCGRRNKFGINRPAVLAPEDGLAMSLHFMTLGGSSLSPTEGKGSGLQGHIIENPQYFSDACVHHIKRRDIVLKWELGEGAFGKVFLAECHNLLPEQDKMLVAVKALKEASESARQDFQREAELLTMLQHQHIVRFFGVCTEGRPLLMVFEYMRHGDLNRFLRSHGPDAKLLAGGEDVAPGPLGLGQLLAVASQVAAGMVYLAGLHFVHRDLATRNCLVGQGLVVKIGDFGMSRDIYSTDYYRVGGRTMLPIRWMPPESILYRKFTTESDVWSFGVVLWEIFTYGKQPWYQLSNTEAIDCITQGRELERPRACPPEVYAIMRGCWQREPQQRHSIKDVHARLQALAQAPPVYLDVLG

pIC50 [1]	pIC50 [2]	Compound
> 7.00	–	COCCC1C[C@@H](NC(=O)Nc2c(C)c(-c3cnn(C)c3)nn2-c2ccccc2)[C@H](c2ccccc2)C1 (some centres unmarked) [Compound I-88]
< 6.00	–	Cc1c(-c2cnn(C)c2)nn(-c2ccccc2)c1NC(=O)N[C@@H]1CN(Cc2ccccc2)[C@H]1c1ccccc1 (racemic) [Compound I-11]
6.00 to 7.00	–	COCCN1C[C@@H](NC(=O)Nc2c(C)c(-c3cnn(C)c3)nn2-c2ccccc2)[C@H](C2CCC(F)(F)CC2)C1 (racemic) [Compound I-33]
6.00 to 7.00	–	COCC(CNC(C)=O)N1C[C@@H](NC(=O)Nc2c(C)c(-c3cnn(C)c3)nn2-c2ccccc2)[C@H](c2ccc(F)c(F)c2)C1 (some centres unmarked) [Compound I-112]
< 6.00	–	COC1CCCCC1N1C[C@@H](NC(=O)Nc2c(C)c(-c3cnn(C)c3)nn2-c2ccccc2)[C@H](c2ccc(F)c(F)c2)C1 (some centres unmarked) [Compound I-176]
6.00 to 7.00	–	Cc1c(-c2cnn(C)c2)nn(-c2ccccc2)c1NC(=O)N[C@@H]1CN(CCOc2ccccc2)C[C@H]1c1ccc(F)c(F)c1 [Compound I-23]
< 6.00	–	COCCN1C[C@@H](NC(=O)Nc2c(C)c(-c3cnn(C)c3)nn2-c2ccccc2)[C@H](c2ccc3oc(=O)[nH]c3c2)C1 (racemic) [Compound I-149]
> 7.00	–	COCC(CCl)N1C[C@@H](NC(=O)Nc2c(C)c(-c3cnn(C)c3)nn2-c2ccccc2)[C@H](c2ccc(F)c(F)c2)C1 (some centres unmarked) [Compound I-99]
< 6.00	–	Cc1c(-c2cnn(C)c2)nn(-c2ccccc2)c1NC(=O)N[C@@H]1CN(c2nnn(C)n2)C[C@H]1c1ccc(F)c(F)c1 [Compound I-151]
> 7.00	–	Cc1c(-c2cnn(C)c2)nn(-c2ccccc2)c1NC(=O)N[C@@H]1CN(Cc2ccc(C#N)o2)C[C@H]1c1ccc(F)c(F)c1 [Compound I-89]
6.00 to 7.00	–	COCOC1C[C@@H](NC(=O)Nc2c(C)c(-c3cnn(C)c3)nn2-c2ccccc2)[C@H](c2ccccc2)C1 (relative stereo) [Compound I-121]
< 6.00	–	COCCN1C[C@@H](NC(=O)Nc2c(C)c(-c3cnn(C)c3)nn2-c2ccccc2)[C@H](c2ccc(C(=O)O)cc2)C1 (racemic) [Compound I-83]
< 6.00	–	Cc1c(-c2cnn(C)c2)nn(-c2ccccc2)c1NC(=O)N[C@@H]1CN(S(C)(=O)=O)C[C@H]1c1ccc(F)c(F)c1 [Compound I-45]
< 6.00	–	COCCN1CCC(c2ccc(F)c(F)c2)C(NC(=O)Nc2c(C)c(-c3cnn(C)c3)nn2-c2ccccc2)C1 (centres unmarked) [Compound I-4]
< 6.00	–	Cc1c(-c2cnn(C)c2)nn(-c2ccccc2)c1NC(=O)N[C@@H]1C[C@@H](C)N(C)[C@H]1c1ccc(F)c(F)c1 (racemic) [I 78]
< 6.00	–	Cc1c(-c2cnn(C)c2)nn(-c2ccccc2)c1NC(=O)N[C@@H]1CN(CCNC(=O)OC(C)(C)C)C[C@H]1c1ccc(F)c(F)c1 [Compound I-31]
< 6.00	–	COCC(C(=O)N(C)OC)N1C[C@@H](NC(=O)Nc2c(C)c(-c3cnn(C)c3)nn2-c2ccccc2)[C@H](c2ccc(F)c(F)c2)C1 (some centres unmarked) [Compound I-169]
6.00 to 7.00	–	Cc1c(-c2cnn(C)c2)nn(-c2ccccc2)c1NC(=O)N[C@@H]1CN(C2CCC2)C[C@H]1c1ccc(F)c(F)c1 [Compound I-125]
–	5.48	Cc1c(-c2cnn(C)c2)nn(-c2ccccc2)c1NC(=O)N[C@@H]1CC2(CC(=O)C2)C[C@H]1c1ccccc1 (racemic) [Compound I-157]
< 6.00	–	Cc1c(-c2cnn(C)c2)nn(-c2ccccc2)c1NC(=O)N[C@@H]1CN(Cc2nccn2C2CC2)C[C@H]1c1ccc(F)c(F)c1 [Compound I-147]
6.00 to 7.00	–	COCCC1C[C@H](NC(=O)Nc2c(C)c(-c3cnn(C)c3)nn2-c2ccccc2)[C@@H](c2ccccc2)C1 (some centres unmarked) [Compound I-123]
–	5.89	Cc1c(-c2cnn(C)c2)nn(-c2ccccc2)c1NC(=O)N[C@@H]1CN(CC2(C)COC2)C[C@H]1c1ccc(F)c(F)c1 [Compound I-142]
< 6.00	–	COC1CC2(C1)C[C@@H](NC(=O)Nc1c(C)c(-c3cnn(C)c3)nn1-c1ccccc1)[C@H](c1ccccc1)C2 (mixture of isomers) [Compound I-170]
> 7.00	–	COCC[C@H]1C[C@@H](NC(=O)Nc2c(C)c(-c3cnn(C)c3)nn2-c2ccccc2)[C@H](c2ccccc2)C1 [Compound I-95]
> 7.00	–	Cc1c(-c2cnn(C)c2)nn(-c2ccccc2)c1NC(=O)N[C@@H]1CN(C(C)c2ccco2)C[C@H]1c1ccc(F)c(F)c1 (some centres unmarked) [Compound I-101]
–	6.84	COCCN1C[C@@H](CC(=O)Nc2c(C)c(-c3cnn(C)c3)nn2-c2ccccc2)[C@H](c2ccc(F)c(F)c2)C1 (racemic) [Compound I-15]

pIC50 [1]	pIC50 [2]	Compound
–	7.47	COCC(Cn1cccn1)N1C[C@@H](NC(=O)Nc2c(C)c(-c3cnn(C)c3)nn2-c2ccccc2)[C@H](c2ccc(F)c(F)c2)C1 (some centres unmarked) [Compound I-100]
< 6.00	–	COCCN1C[C@@H](NC(=O)Nc2c(C)c(-c3cnn(C)c3)nn2-c2ccccc2)[C@H](c2nc3ccccc3s2)C1 (racemic) [Compound I-153]
< 6.00	–	Cc1c(-c2cnn(C)c2)nn(-c2ccccc2)c1NC(=O)N[C@@H]1CC(C)(O)C[C@H]1c1ccccc1 (some centres unmarked) [Compound I-154]
< 6.00	–	Cc1c(-c2cnn(C)c2)nn(-c2ccccc2)c1NC(=O)N[C@@H]1CN(CCS(C)(=O)=O)C[C@H]1c1ccc(F)c(F)c1 [Compound I-46]
< 6.00	–	CC(=O)N1C[C@@H](NC(=O)Nc2c(C)c(-c3cnn(C)c3)nn2-c2ccccc2)[C@H](c2ccc(F)c(F)c2)C1 [Compound I-28]
> 7.00	–	COCCN1C[C@@H](NC(=O)Nc2c(C)c(-c3cnn(C)c3)nn2-c2ccccc2)[C@H](c2cccc(-c3ccc(C#N)cc3)c2)C1 (racemic) [Compound I-50]
6.00 to 7.00	–	COCC(C(N)=O)N1C[C@@H](NC(=O)Nc2c(C)c(-c3cnn(C)c3)nn2-c2ccccc2)[C@H](c2ccc(F)c(F)c2)C1 (some centres unmarked) [Compound I-133]
–	6.32	COCCC1(C)C[C@@H](NC(=O)Nc2c(C)c(-c3cnn(C)c3)nn2-c2ccccc2)[C@H](c2ccccc2)C1 (some centres unmarked) [Compound I-132]
> 7.00	–	C=C1C[C@@H](NC(=O)Nc2c(C)c(-c3cnn(C)c3)nn2-c2ccccc2)[C@H](c2ccc(F)cc2)C1 (racemic) [Compound I-65]
< 6.00	–	COCCN1C[C@@H](NC(=O)N(C)c2c(C)c(-c3cnn(C)c3)nn2-c2ccccc2)[C@H](c2ccc(F)c(F)c2)C1 [Compound I-32]
6.00 to 7.00	–	COCCN1C[C@@H](NC(=O)Nc2c(C)c(-c3cnn(C)c3)nn2-c2ccccc2)[C@H](c2cccc3c2OCO3)C1 (racemic) [Compound I-75]
6.00 to 7.00	–	COCC(CN)N1C[C@@H](NC(=O)Nc2c(C)c(-c3cnn(C)c3)nn2-c2ccccc2)[C@H](c2ccc(F)c(F)c2)C1 (some centres unmarked) [Compound I-131]
< 6.00	–	COCCN1C[C@H](NC(=O)Nc2c(C)c(-c3cnn(C)c3)nn2-c2ccccc2)[C@H](c2ccc(F)c(F)c2)C1 (racemic) [Compound I-6]
6.00 to 7.00	–	COCCN1C[C@@H](NC(=O)Nc2c(C)c(-c3cnn(C)c3)nn2-c2ccccc2)[C@H](c2ccc(C(=O)OC)cc2)C1 (racemic) [Compound I-20]
< 6.00	–	COCCN1C[C@@H](NC(=O)Nc2c(C)c(OCC(C)(C)O)nn2-c2ccccc2)[C@H](C2CCCCC2)C1 (racemic) [Compound I-10]
> 7.00	–	COCC(CCO)N1C[C@@H](NC(=O)Nc2c(C)c(-c3cnn(C)c3)nn2-c2ccccc2)[C@H](c2ccc(F)c(F)c2)C1 (some centres unmarked) [Compound I-105]
< 6.00	–	Cc1c(-c2cnn(C)c2)nn(-c2ccccc2)c1NC(=O)N[C@@H]1CC2(CC(O)C2)C[C@H]1c1ccccc1 (mixture of isomers) [Compound I-172]
6.00 to 7.00	–	COCC(CNC(=O)OC)N1C[C@@H](NC(=O)Nc2c(C)c(-c3cnn(C)c3)nn2-c2ccccc2)[C@H](c2ccc(F)c(F)c2)C1 (some centres unmarked) [Compound I-139]
6.00 to 7.00	–	COCCOCCN1C[C@@H](NC(=O)Nc2c(C)c(-c3cnn(C)c3)nn2-c2ccccc2)[C@H](c2ccc(F)c(F)c2)C1 [Compound I-81]
> 7.00	–	COCCN1C[C@@H](NC(=O)Nc2c(C)c(-c3cnn(C)c3)nn2-c2ccccc2)[C@H](c2ccc3ccccc3c2)C1 (racemic) [Compound I-104]
< 6.00	–	Cc1c(-c2cnn(C)c2)nn(-c2ccccc2)c1NC(=O)N[C@@H]1CN(C#N)C[C@H]1c1ccc(F)c(F)c1 [Compound I-173]
< 6.00	–	Cc1c(-c2cnn(C)c2)nn(-c2ccccc2)c1NC(=O)N[C@@H]1CN(C2CCOC2)C[C@H]1c1ccc(F)c(F)c1 (some centres unmarked) [Compound I-39]
6.00 to 7.00	–	COCCN1C[C@@H](NC(=O)Nc2c(C)c(-c3cnn(C)c3)nn2-c2ccccc2)[C@H](c2cc3ccccc3o2)C1 (racemic) [Compound I-134]
> 7.00	–	CCC1C[C@@H](NC(=O)Nc2c(C)c(-c3cnn(C)c3)nn2-c2ccccc2)[C@H](c2ccccc2)C1 (some centres unmarked) [Compound I-103]
< 6.00	–	Cc1c(-c2cnn(C)c2)nn(-c2ccccc2)c1NC(=O)N[C@@H]1CN(C2CC(F)(F)C2)C[C@H]1c1ccc(F)c(F)c1 [Compound I-38]

Compound	pIC50 [1]	pIC50 [2]
COCCN1[C@@H]2CCC[C@H]1[C@@H](c1ccc(F)c(F)c1)[C@@H]2NC(=O)Nc1c(C)c(-c2cnn(C)c2)nn1-c1ccccc1 (racemic) [Compound I-12]	< 6.00	–
Cc1c(-c2cnn(C)c2)nn(-c2ccccc2)c1NC(=O)N[C@H]1[C@H](c2ccc(F)c(F)c2)[C@@H]2CC[C@H]1N2 (racemic) [Compound I-68]	< 6.00	–
